Assays:
[1] = test system: PTEN expression; test: Quantitative RT-PCR of PTEN expression in KILLIN-methylated patient lymphoblastoid cell lines after demethylation and/or histone deacetylase inhibition treatment; format: cell-based, human; settings: seven of the eight patient lymphoblastoid cell lines; decitabine 0.5 μM and/or TSA 200 nM; pooled result for demethylation and/or inhibition of histone deacetylation
Protocol: (§1) The quantitative reverse transcription PCRs were performed as previously described. Bennett et al., Cancer Res.; 67(10): 4657-4664 (2007). The study population included four controls and eight patients that were selected based on confirmed methylation status by bisulfite sequencing analysis and representation of the Cowden syndrome and Cowden-like syndrome condition.
(§2) The study population included eight patients that were selected based on confirmed methylation status by bisulfite sequencing analysis and representation of Cowden syndrome and Cowden-like syndrome condition. Demethylation treatment was performed with a cytosine analog, 5-aza-2′deoxycytidine (decitabine; Sigma), for 96 hours at 0.5 μM concentration with approximately 40% confluent suspension lymphoblastoid cells. Inhibition of histone deacetylation was performed with 200 nM concentration of Trichostatin A (TSA; Sigma) with approximately 40% confluent suspension lymphoblastoid cells for 48 hours, with or without 0.5 μM decitabine. The drug was changed daily, and the cells were collected for RNA isolation.

[2] = test system: KILLIN expression; test: Quantitative RT-PCR of KILLIN expression in KILLIN-methylated patient lymphoblastoid cell lines after demethylation and/or histone deacetylase inhibition treatment; format: cell-based, human; settings: pooled result for decitabine and/or TSA; for patient cell lines in which KILLIN expression was restored: 7 of the 8 patient lymphoblastoid cell lines, decitabine 0.5 μM and/or TSA 200 nM; for KILLIN expression increase following exposure to decitabine and/or TSA: patient lymphoblastoid cell lines, decitabine 0.5 μM 96 hours and/or TSA 200 nM 48 hours, normalized to untreated counterpart set as 1, 95% confidence interval 1.4-18.1
Protocol: as §1, §2

| Structure (SMILES) | patient cell lines with significant decrease in PTEN expression [1] [%] | patient cell lines in which KILLIN expression was restored [2] [%] | KILLIN expression increase following exposure to decitabine and/or TSA [2] [fold] |
| --- | --- | --- | --- |
| CC(/C=C/C(=O)NO)=C\[C@@H](C)C(=O)c1ccc(N(C)C)cc1 [TSA, Trichostatin A] | 88 | 88 | 4.88 |
| Nc1ncn([C@H]2C[C@H](O)[C@@H](CO)O2)c(=O)n1 [decitabine, 5-aza-2′deoxycytidine] | 88 | 88 | 4.88 |

Reference: US9458505B2, “Diagnosis of cowden and cowden-like syndrome by detection of decreased killin expression” (The Cleveland Clinic Foundation, priority 2011, dated 2016)
